Experimental data published in US20220073557A1, “FLUORINATED BILE ACIDS” (NZP UK LIMITED, priority 2018, published 2022).

Key:
[1] = test system: dopaminergic neurons derived from sPD patients (iNeurons); assay: Activated caspase 3 immunofluorescence staining in iNeurons; assay type: cell-based, human; settings: untreated sPD 162
Procedure: (§1) Briefly, iNPCs are plated in a 6-well plate and cultured for 2 days in DMEM/F-12 medium with Glutamax™ supplemented with 1% NEAA, 2% B27 (Gibco) and 2.5 μM of DAPT. On day 3, DAPT is removed and the medium is supplemented with 1 μM smoothened agonist (SAG) and FGF8 (75 ng/ml) for additional 10 days. Neurons are replated at this stage. Subsequently SAG and FGF8 are withdrawn and replaced with BDNF (30 ng/ml), GDNF (30 ng/ml), TGF-b3 […] and dcAMP (2 mM, Sigma) for 15 days.
Cells are plated into 96 well plates and fixed using 4% paraformaldehyde for 30 minutes. After PBS washes cells are permeabilised using 0.1% Triton™ X-100 for 10 minutes and blocked using 5% goat serum for 1 hour. Cells are incubated with primary antibodies tyrosine hydroxylase (St John's Laboratory); DAT (Abcam); Tuj (Millipore); Tom20 (BD Biosciences); activated caspase 3 (Cell Signaling); alpha synuclein (Cell Signaling); phosphorylated alpha synuclein (Millipore) at 4° C. for 16 hours. Cells are washed using PBS-Tween® and incubated with Alexa Fluor™-conjugated secondary antibodies 488 and 568 (Invitrogen) and Hoescht (Sigma) 1 μM prior to imaging. Imaging was performed using the Opera Phenix™ high content imaging system (Perkin Elmer).

[2] = test system: dopaminergic neurons derived from sPD patients (iNeurons); assay: Dopamine ELISA in iNeurons; assay type: cell-based, human; settings: untreated sPD 0
Procedure: as §1
Dopamine ELISA is performed using Dopamine research ELISA kit (Labor Diagnostika Nord GmbH&Co. KG) as per manufacturers instructions. Dopamine release is obtained incubating the cells at 37° C. using three different conditions at the same time per line. Medium is removed in all wells then the first well is incubated with HBSS with Ca^2+ and Mg^2+ (Gibco by Life Technologies) for 30 minutes, the second well is incubated in HBSS with Ca^2+ and Mg^2+ for 15 minutes and then 56 mM KCl (Fisher chemical) is added for another 15 minutes and the third well is incubated with HBSS without Ca^2+ and Mg^2+ (Gibco by Life Technologies) but with 2 mM EDTA for 15 min and then 56 mM KCl is added for another 15 minutes. Straight away media is collected in an eppendorf and cells are harvested using Accutase®, centrifuge at 400 g for 4 min and resuspended in 10 μl of PBS. […]

[3] = test system: sporadic PD patient fibroblasts; assay: Cellular ATP levels (ATPlite, normalised to CyQUANT DNA content) in sporadic PD patient fibroblasts; assay type: cell-based; settings: Homo sapiens, Fibroblast, 24 h
Procedure: Fibroblasts were cultured in DMEM (Invitrogen) and routinely subcultured every 3-5 days using trypsin to dissociate them.
The ATP protocol is generally as described in Mortiboys et al, “Mitochondrial function and morphology are impaired in parkin-mutant fibroblasts”, Ann Neurol. 2008 November; 64(5):555-65. Briefly, fibroblasts were cultured as and plated into white 384 well plates with 5000 cells per well in 50 μl of media volume. The plates are left overnight in an incubator to allow the fibroblasts to adhere to the plate surface. The following morning the Glucose based medium is replaced with 25 μl of Galactose based medium. The compounds are added to the plates using a ECHO 550 liquid handling system. The wells were dosed to provide an 8-point concentration range of 0.06 nM-300 nM of compound. After dosing the wells are topped up with a further 25 μl of Galactose based medium and then left in an incubator for 24 hours. Following this incubation the medium is removed from the plate and the wells are washed twice with sterile PBS. The wells are filled with 25 μl of Sterile PBS followed by 12.5 μl of Lysis solution from the ATPlite™ Luminescence ATP detection assay system (Perkin Elmer), including 16 cell free wells to use as blank controls. The plate is then placed on a rotary shaker for 5 mins at 700 rpm. Following the shaking 12.5 μl of ATP substrate solution (Perkin Elmer) is added to each well and a further 5 min of shaking. The plate is then placed in darkness for 10 minutes prior to reading. Using a PHERAStar® plate reader, luminescence intensity is recorded. Following the ATP assay the plates are immediately assayed for DNA content in a CyQUANT® assay.
Immediately following The ATP assay DNA content is assessed with the CyQUANT® NF Cell Proliferation Assay Kit (ThermoFisher). CyQUANT® buffer is prepared immediately before the assay and is comprised of 1 ul CyQUANT® dye per ml×1 HBSS solution. 12.5 ul of CyQUANT® buffer is added to each well. Plate left in incubator for 1 hour then read on a PHERAStar® Plate reader with excitation at 497 nm and emission at 520 nm. ATP Quantification for each well is determined using the following formula: […]
After the assays had been repeated in triplicate per line and compound the data was then inputted into Graph pad Prism 7 software suite where a dose response curve is generated using the default “[Agonist] vs response (three parameters)” equation.
From this EC50 values, lowest response and maximal response were taken and used to calculate the Geometric mean between the 5 different lines assessed.
Cellular ATP levels were measured in fibroblasts from 6 (Table 3) or 3 (Table 4) patients with sporadic Parkinson's disease when treated with Compounds of the invention or Comparator compounds. The results are shown in Tables 3 and 4, where “Bottom”=max response with lowest dose of compound (0.06 nM) and “top”=max response with highest dose of compound (300 nM).

[4] = test system: sAD and familial AD (PSEN1 mutants) patient fibroblasts; assay: Total cellular ATP levels in Alzheimer's disease patient fibroblasts; assay type: cell-based, human; settings: 24 hour treatment at 100 nM, 21% restores to control levels
Procedure: Data shown in the Table 6 below is the mean increase in ATP levels after 24 hour treatment with compounds at 100 nM concentration.

[5] = test system: sporadic PD patient fibroblast lines; assay: Seahorse assay (oxygen consumption, extracellular acidification rate) in sPD fibroblasts; assay type: cell-based, human
Procedure: Fibroblasts are plated into Seahorse 24 well plates with 50,000 cells per well. Cells are left to attach for 2 days. Media is changed to Seahorse DMEM media with glucose and sodium pyruvate and left to equilibrate at 37 degrees normal air CO2 for 1 hour. The plate is entered into the Seahorse machine and run on a program of mix (2 minutes), wait (3 minutes) and measure (3 minutes). After three measurements of basal respiration and ECAR; 0.5 μM oligomycin is injected after which another three measurements are taken; then 0.5 μM of FCCP is injected and three measurements taken and finally 1 μM rotenone is injected and three measurements taken. After all measurements are complete, cells are stained with 10 μM Hoescht and imaged using the InCell to count the number of cells per well for normalisation. This classical ritochondrial stress test experimental protocol allows us to calculate the basal mitochondrial respiration, ATP linked respiration (the amount which is coupled to ATP generation), the maximal and spare respiratory capacity, the non-mitochondrial respiration rate and the extracellular acidification rate which is a proxy measure of glycosolysis.

C[C@H](CCC(=O)O)[C@H]1CC[C@H]2[C@@H]3[C@@H](O)C[C@@H]4C[C@@H](O)C(F)(F)C[C@]4(C)[C@H]3CC[C@]12C [Compound 7, 2,2-difluoro-3β,7β-dihydroxy-5β-cholanic acid]
Activated caspase 3 levels [1]: 100 % of level in iNeurons from Controls | Dopamine level (increase in dopamine release) [2]: ~5% increase in | activity at 60 pM ([3]; read-out: Cellular ATP levels Bottom (% of vehicle treated)): 112% | EC50 ([3]; read-out: Cellular ATP levels EC50 (nM)): 0.429 nM | activity at 0.3 µM ([3]; read-out: Cellular ATP levels Top (% of vehicle treated)): 172% | % increase over vehicle treated (mean increase in ATP levels) [4]: 24% | Mitochondrial respiration (basal, maximal and ATP linked respiration; oxygen consumption) ([5]; 6 sPD fibroblast lines, dosed at EC90 (UDCA 100 nM, Compound 7 50 nM), FIG. 1A-1C): significantly improves all three mitochondrial parameters | Extracellular acidification rate (ECAR, proxy measure of glycolysis) ([5]; 6 sPD fibroblasts, FIG. 2): significantly improved | EC90 ([5]; Homo sapiens, Fibroblast, read-out: EC90 concentration): 0.05 µM
